From patent EP4772497A1, “POLYMORPHS OF NITROGEN-CONTAINING HETEROCYCLIC COMPOUNDS, AND USES THEREOF” (BNH Research Co., Ltd., priority 2023, dated 2025)

Assays:
[1] = Hygroscopicity by dynamic vapor sorption (DVS); type: physicochemical
Experimental: Instrument model: SMS DVS Advantage Dynamic Vapor Sorption System Test method: A sample (10 to 15 mg) is taken and placed on a DVS sample pan, and measurement is performed. Detailed DVS parameters are as follows. Temperature: 25°C Equilibrium dm/dt = 0.002%/min: (minimum: 60 min, maximum: 240 min) Relative humidity (RH (%)) measurement gradient: 10% Relative Humidity (RH (%)) measurement gradient cycle: 40-0-95-0-40% The following description provides the criteria for determining hygroscopicity: [Table 6]
The moisture adsorption and desorption behavior of crystalline form C was investigated by the DVS test of Experimental Method 5. XRPD was performed to confirm any change in form after the DVS test.

[2] = Dry grinding simulation experiment (XRPD); type: physicochemical; details: manually ground for 1, 3, and 5 minutes, mortar and pestle
Experimental: About 5 mg of crystalline form C was manually ground for 1, 3, and 5 minutes using a mortar and pestle. Potential changes in form and crystallinity were evaluated by XRPD.
The XRPD results of the dry grinding simulation experiments are shown in Fig. 11, where GSE1, GSE2, and GSE3 represent experiment IDs for grinding for 1 minute, 3 minutes, and 5 minutes, respectively.

[3] = system: APP/PS1 mice; assay: fEPSP slope and LTP in hippocampal CA1 (Schaffer collateral) after dosing, ex vivo synaptic plasticity; details: APP/PS1 mice 15 months old, form C 1 mg/kg orally once daily about 11 to 13 days, aducanumab 5 mg/kg i.v., four weekly injections
Experimental: (§1) Using APP/PS1 mice (15 months old, Taconic Biosciences), an animal model of Alzheimer's disease, the efficacy of crystalline form C and aducanumab (Creative Biolabs) was evaluated when administered alone or in combination, respectively. A control group and four experimental groups were prepared as follows (see Table 14).
(§2) For the control antibody, an isotype antibody was administered intravenously, and for the vehicle, 200 µL of a mixed solution of DMSO (10):PEG400 (44):saline (55) was administered orally. Five mice were used for each treatment group.
(§3) Aducanumab was administered at a dose of 5 mg/kg, and the control antibody, which is an inactivated form of aducanumab, was administered at a dose of 5 mg/kg. For the intravenous administration, a total of four injections were administered into the tail vein on the starting day of the experiment and at one-week intervals thereafter.
(§4) For oral administration, 1 mg/kg of the compound of the present disclosure (crystalline form C, BnH-015B) or a vehicle was administered orally once daily for about 11 to 13 days, starting about 2 weeks after the initiation of the experiment.

[4] = system: APP/PS1 mice; assay: TC synaptic potency and GABA/AMPA ratio in the sensory cerebral cortex after dosing; type: in vivo; details: form C 1 mg/kg orally, aducanumab 5 mg/kg i.v.
Experimental: as §1, §2, §3, §4
Meanwhile, the efficacy of the compound against Alzheimer's disease was evaluated by measuring the potency and the GABA/AMPA ratio in the sensory cerebral cortex. […]

[5] = system: C57BL/6J mice; assay: TC synaptic potency and GABA/AMPA ratio in the barrel cortex after oral administration; type: in vivo; details: 8-week-old C57BL/6J mice, 1 mg/kg orally, barrel cortex (layer 4)
Experimental: Following oral administration of crystalline form C, the efficacy of the compound was evaluated by measuring the potency and the GABA/AMPA ratio in the barrel cortex.
Crystalline form C was orally administered at a dose of 1 mg/kg to 8-week-old C57BL/6J mice. For the control group, 200 µL of a mixed solution of DMSO (10):PEG400 (44):saline (55) was orally administered as a vehicle. Experiments were performed on five mice each for the control (vehicle) group and the compound-treated group.

- Classification of hygroscopicity ([1]; DVS, 25°C): non-hygroscopic
- Weight change (%) in 1st adsorption ([1]; Relative humidity 0% at 25°C): 0%
- Weight change (%) in 1st desorption ([1]; Relative humidity 0% at 25°C): 0%
- Weight change (%) in 2nd adsorption ([1]; Relative humidity 0% at 25°C): 0%
- Weight change (%) in 2nd desorption ([1]; Relative humidity 0% at 25°C): 0%
- Weight change (%) in 1st adsorption ([1]; Relative humidity 10% at 25°C): 0%
- Weight change (%) in 1st desorption ([1]; Relative humidity 10% at 25°C): 0%
- Weight change (%) in 2nd adsorption ([1]; Relative humidity 10% at 25°C): 0%
- Weight change (%) in 2nd desorption ([1]; Relative humidity 10% at 25°C): 0%
- Weight change (%) in 1st adsorption ([1]; Relative humidity 20% at 25°C): 0%
- Weight change (%) in 1st desorption ([1]; Relative humidity 20% at 25°C): 0%
- Weight change (%) in 2nd adsorption ([1]; Relative humidity 20% at 25°C): 0%
- Weight change (%) in 2nd desorption ([1]; Relative humidity 20% at 25°C): 0%
- Weight change (%) in 1st adsorption ([1]; Relative humidity 30% at 25°C): 0%
- Weight change (%) in 1st desorption ([1]; Relative humidity 30% at 25°C): 0%
- Weight change (%) in 2nd adsorption ([1]; Relative humidity 30% at 25°C): 0%
- Weight change (%) in 2nd desorption ([1]; Relative humidity 30% at 25°C): 0%
- Weight change (%) in 1st adsorption ([1]; Relative humidity 40% at 25°C): 0%
- Weight change (%) in 1st desorption ([1]; Relative humidity 40% at 25°C): 0%
- Weight change (%) in 2nd adsorption ([1]; Relative humidity 40% at 25°C): 0%
- Weight change (%) in 2nd desorption ([1]; Relative humidity 40% at 25°C): 0.1%
- Weight change (%) in 1st adsorption ([1]; Relative humidity 50% at 25°C): 0.1%
- Weight change (%) in 2nd desorption ([1]; Relative humidity 50% at 25°C): 0.1%
- Weight change (%) in 1st adsorption ([1]; Relative humidity 60% at 25°C): 0.1%
- Weight change (%) in 2nd desorption ([1]; Relative humidity 60% at 25°C): 0.1%
- Weight change (%) in 1st adsorption ([1]; Relative humidity 70% at 25°C): 0.1%
- Weight change (%) in 2nd desorption ([1]; Relative humidity 70% at 25°C): 0.1%
- Weight change (%) in 1st adsorption ([1]; Relative humidity 80% at 25°C): 0.1%
- Weight change (%) in 2nd desorption ([1]; Relative humidity 80% at 25°C): 0.1%
- Weight change (%) in 1st adsorption ([1]; Relative humidity 90% at 25°C): 0.1%
- Weight change (%) in 2nd desorption ([1]; Relative humidity 90% at 25°C): 0.1%
- Weight change (%) in 1st adsorption ([1]; Relative humidity 95% at 25°C): 0.1%
- Weight change (%) in 2nd desorption ([1]; Relative humidity 95% at 25°C): 0.1%
- crystalline form after the DVS test (XRPD) ([1]; sample obtained after the DVS test): still exhibits crystalline pattern C
- moisture uptake ([1]; up to 95% RH, 25°C): less than 0.2%
SMILES: C[C@@H]1CC[C@H](C(=O)O)CN1C(=O)Cc1ccc(F)cc1Cl [Crystalline form C, (3S,6R)-1-(2-(2-chloro-4-fluorophenyl)acetyl)-6-methylpiperidine-3-carboxylic acid]
- change in form and crystallinity on grinding [2]: no change in form, but its crystallinity decreased significantly
- long-term potentiation (LTP) of the fEPSP, excitatory SC pathway ([3]; hippocampus CA1): significantly increased
- slope of the field excitatory postsynaptic potential (fEPSP), synaptic efficacy ([3]; hippocampus CA1, 4 weeks): significantly increased
- balance of excitation/inhibition (GABA/AMPA ratio) [4]: maintaining the balance of excitation/inhibition
- excitatory TC synaptic potency (TC potency) [4]: increased excitatory TC synaptic potency
- TC synaptic potency [5]: increase TC synaptic potency
- balance of excitation/inhibition (GABA/AMPA ratio) [5]: maintaining the balance of excitation/inhibition
